In patent US20150368617A1, “METHOD FOR FORMING ENDOTHELIAL CELLS” (Korea Advanced Institute of Science and Technology (KAIST), priority 2012, published 2015):

Columns and labels:
Assay type in all cases: cell-based, mouse
ICAM2+ ECs = experiment: Quantitative RT-PCR of EC- and MC-related genes in purified ICAM2+ ECs; conditions: VEGF-A plus Y27632 compared to VEGF-A
From the text: Total RNA from purified ICAM-2+ ECs was extracted using Trizol RNA extraction kit (Invitrogen) according to the manufacturer's instructions. 1┌ g of the RNA was reverse transcribed into cDNA using GoScript™ cDNA synthesis system (Promega). Synthesized cDNA was applied for quantitative real-time PCR using FastStart SYBR green Master (Roche) and Bio-Rad S1000 Thermal cycler with the indicated primers (Table I). GAPDH was used as reference gene and the results were presented as relative expression to control using the ddCt method.

ESC = experiment: Estimation of number of ECs generated from one ESC in the 2D Matrigel system; conditions: day 8.5
Experimental: FIG. 16. Estimation and comparison of number of ECs generated from one ESC grown with indicated agents in the 2D Matrigel system at day 6.5 and 8.5. Estimation was calculated from 5 independent incubations.
To maximize the amount of ECs obtained from ESC, we expanded the ICAM2+ ECs for 2 days using the same culture system with VEGF-A and Y27632 (FIG. 14A). When the ECs were grown for 2 days without either VEGF-A or Y27632, the population of CD31+/CD144+ ECs underwent a decrease of ˜30% from the initial population of ˜90% (FIG. 14B-D). […] This way, we were further able to obtain ˜4.2-fold expansion of CD31+/CD144+ ECs from the ICAM2+ ECs (FIGS. 14B-F) In the presence of VEGF-A, Y27632 promoted the adhesion of ICAM2+ ECs onto the plate by 1.3-fold at 6 hrs after plating (FIG. 14G). In these purified ECs, Y27632 and VEGF-A each promoted the proliferation of ECs to a similar level, and combination of Y27632 and VEGF-A promoted EC proliferation to a greater degree. […] Based on these findings, we conclude that further expansion of high purity ECs (>90%) could be achieved from ESC by combination of simultaneous ROCK suppression and VEGF-stimulation—these high purity ECs are hereafter referred to as “VEGF-A plus Y27632-induced and anti-ICAM2 antibody-sorted ECs (VYI-ECs)” (FIG. 14A). […]

Flk1+ MPCs [1] = experiment: Cell adhesion assay, Flk1+ MPCs; conditions: 6 hrs
Experimental: Sorted Flk1+ MPCs or ICAM2+ ECs were plated onto Matrigel coated plates at a density of 10,000 cells/cm^2. Six hrs after plating, non-adherent cells were removed by washing and the cell number of adherent cells was counted following trypsinization. The percentage of adherent cells was calculated as (counted cell number/initial seeded cell number)×100.

Flk1+ MPCs [2] = experiment: EC colony assay; conditions: 36 hrs; VEGF-A 50 ng/ml, Y27632 10 μM
Experimental: The Flk1+ MPCs were plated onto Matrigel-coated plate at a density of 4,000 cells/cm^2, and cultured in differentiation medium supplemented with VEGF-A165 (50 ng/ml) and Y27632 (10┌M). At 36 hrs later, the number of CD144+ EC colonies was counted. Clustering of >5 CD144+ ECs was regarded as one EC colony.

C[C@@H](N)[C@H]1CC[C@H](C(=O)Nc2ccncc2)CC1 [Y27632]
calponin mRNA, reduced expression level (ICAM2+ ECs): 25 fold | claudin-5 mRNA, expressed more (ICAM2+ ECs): 4.6 fold | dll4 mRNA, expressed more (ICAM2+ ECs): 2.5 fold | ets1 mRNA, expressed more (ICAM2+ ECs): 1.4 fold | ets2 mRNA, expressed more (ICAM2+ ECs): 2.1 fold | notch1 mRNA, expressed more (ICAM2+ ECs): 1.5 fold | sm22a mRNA, reduced expression level (ICAM2+ ECs): 25 fold | sma mRNA, reduced expression level (ICAM2+ ECs): 17 fold | sox17 mRNA, expressed more (ICAM2+ ECs): 1.7 fold | sox18 mRNA, expressed more (ICAM2+ ECs): 1.8 fold | vegfr3 mRNA, expressed more (ICAM2+ ECs): 1.7 fold | number of ECs generated from one ESC (from ˜73 Flk1+ MPCs) (ESC): ~36 | adhesion of Flk1+ cells onto the plates compared to control (Flk1+ MPCs [1]): 1.3 fold | number of EC colonies and cell number in each colony (Flk1+ MPCs [2]): increased
